# In patent publication US20110212078A1, “SYNTHESIS AND USE OF HETEROCYCLIC ANTIBACTERIAL AGENTS” (priority 2008, published 2011):
# Biological target: T1, LpxC enzyme (Escherichia coli, UniProt P0A725)
# T1 sequence (P0A725 1-305): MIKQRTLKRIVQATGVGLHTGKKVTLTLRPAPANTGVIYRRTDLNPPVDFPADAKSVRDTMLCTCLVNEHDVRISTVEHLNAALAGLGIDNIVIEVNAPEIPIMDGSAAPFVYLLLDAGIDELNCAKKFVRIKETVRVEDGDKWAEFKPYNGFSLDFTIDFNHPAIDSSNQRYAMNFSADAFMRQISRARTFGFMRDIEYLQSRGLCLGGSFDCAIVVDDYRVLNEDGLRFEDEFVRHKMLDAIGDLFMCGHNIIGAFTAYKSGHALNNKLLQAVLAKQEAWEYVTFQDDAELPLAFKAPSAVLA
# Assay: standard LpxC assay (RapidFire high-throughput mass spectrometry)
# Assay type: biochemical
# Conditions: 0.2 nM LpxC enzyme, 1.0 μM UDP-3-O-(R-3-hydroxymyristoyl)-N-acetylglucosamine, 60 minutes at room temperature; read-out: E. coli IC50
# Description: The standard LpxC assay consists of 0.2 nM LpxC enzyme, 1.0 μM UDP-3-O—(R-3-hydroxymyristoyl)-N-acetylglucosamine, and test compound, in assay buffer and 2% DMSO. Assay buffer is comprised of 25 mM HEPES, pH 7.3, 150 mM NaCl, 2.0 mM DTT, and 0.01% BSA. The enzyme reaction is carried out in a 96-well assay plate, in a final volume of […]. Solutions of test compounds are prepared in 100% DMSO. Reaction additions, in order, are (1) 2.0 μL compound solution, (2) 80 μL of assay buffer, (3) […] of 10 μM UDP-3-O—(R-3-hydroxymyristoyl)-N-acetylglucosamine (in assay buffer) and, (4) 10 μL of LpxC enzyme (20 nM in assay buffer) to initiate the reaction. In positive control reactions, addition (1) has 2.0 μL of 100% DMSO (without compound); these reactions are used as the total signal (TSB) value. Reactions are incubated at room temperature for 60 minutes when 10 μL of 1 N HCl is added to stop the reaction. The plate is shaken by hand for 10 seconds to ensure complete quenching. Assay plates are sealed with foil tape, and stored at −80° C. for 24-48 hr prior to analysis.
# The concentrations of substrate and product in the reaction mixtures are determined with BioTrove's proprietary RapidFire™ high-throughput mass spectrometry (HTMS). Assay mixtures are partially purified with reverse phase chromatography, where they are washed with water containing 5 mM ammonium formate and eluted onto the mass spectrometer in 80% acetonitrile, 20% water, and 5 mM ammonium formate. The mass spectrometry peak areas of the substrate and product are measured to determine the concentration of these analytes. The assay signal is the percentage of substrate that is converted to product. Percent inhibition, % I, in test samples is determined from the following equation: […]
# Using this method, the following E. coli IC50 (nM) data were obtained for selected Compounds of Formula (I);
row,Compound,IC50 [µM]
1,C[C@@H](O)[C@@H](C(=O)NO)N1Cc2cc(C#Cc3ccccc3)ccc2C1=O [Compound 11],< 5
2,C[C@@H](O)[C@@H](C(=O)NO)N1Cc2cc(Br)ccc2C1=O [Compound 12],< 5
3,C[C@@H](O)[C@@H](C(=O)NO)N1Cc2cc(C#Cc3ccc(-c4ccccc4)cc3)ccc2C1=O [Compound 13],< 0.05
4,C[C@@H](O)[C@@H](C(=O)NO)N1Cc2cc(C#Cc3cccc(-c4ccccc4)c3)ccc2C1=O [Compound 14],< 5
5,C[C@@H](O)[C@@H](C(=O)NO)N1Cc2ccc(C#Cc3ccccc3)cc2C1=O [Compound 20],< 5
6,C[C@@H](O)[C@@H](C(=O)NO)N1Cc2ccc(Cl)cc2C1=O [Compound 21],< 5
7,C[C@@H](O)[C@@H](C(=O)NO)N1Cc2cc(-c3ccccc3)ccc2C1=O [Compound 26],< 5
8,C[C@@H](O)[C@@H](C(=O)NO)N1Cc2cc(Cc3ccc(-c4ccccc4)cc3)ccc2C1=O [Compound 31],< 0.05
9,C[C@@H](O)[C@@H](C(=O)NO)N1Cc2cc(-c3ccc(-c4ccccc4)cc3)ccc2C1=O [Compound 32],< 0.05
10,C[C@@H](O)[C@@H](C(=O)NO)N1Cc2cc(-c3ccc(C#Cc4ccccc4)cc3)ccc2C1=O [Compound 36],< 0.05
11,C[C@@H](O)[C@@H](C(=O)NO)N1Cc2cc(N3CCN(c4ccc(C(=O)Cc5ccccc5)cc4)CC3)ccc2C1=O [Compound 50],< 5
12,C[C@@H](O)[C@@H](C(=O)NO)N1Cc2cc(N3CCN(c4ccccc4)CC3)ccc2C1=O [Compound 52],< 5
13,C[C@@H](O)[C@@H](C(=O)NO)N1Cc2cc(N3CCC(c4ccc(-c5ccccc5)cc4)CC3)ccc2C1=O [Compound 53],< 5
14,CC(O)C(C(=O)NO)n1[nH]c2cc(C#Cc3ccccc3)ccc2c1=O (stereo not shown) [Compound 65],< 5
15,CC(O)C(C(=O)NO)N1C(=O)c2ccc(C#Cc3ccccc3)cc2C1=O (stereo not shown) [Compound 74],< 5
16,CC(O)C(C(=O)NO)N1C(=O)c2ccc(-c3ccccc3)cc2C1=O (stereo not shown) [Compound 79],< 5
17,CC(O)C(C(=O)NO)N1C(=O)c2ccc(Br)cc2C1=O (stereo not shown) [Compound 80],< 5
18,C[C@@H](O)[C@@H](C(=O)NO)N1CC2CN(Cc3ccc(C#Cc4ccccc4)cc3)CCN2C1=O (stereo partly shown) [Compound 88],< 5
19,C[C@@H](O)[C@@H](C(=O)NO)N1CC2CN(c3ccc(C#Cc4ccccc4)cc3)CCN2C1=O (stereo partly shown) [Compound 91],< 5
